Test system: pro-inflammatory patterns typical of IBD
Assay: depression of pro-inflammatory patterns typical of IBD
Conditions: administered alone
From the text: According to an aspect of the invention, the casein (ii) contained in the mixture (M), together with (i), (iii) and (iv) (according to any of the described embodiments), is a micellar casein, i.e. in the native form thereof.

Question: How did the “pro-inflammatory patterns typical of IBD” value turn out when casein was run?
Answer: The value was “capable of depressing pro-inflammatory patterns typical of IBD”.

From patent US20220218776A1, “COMPOSITION FOR USE IN A METHOD FOR PREVENTION OR TREATMENT OF MALTNUTRITION IN A SUBJECT SUFFERING FROM A CHRONIC INFLAMMATORY BOWEL DISEASES” (SOFAR S.P.A., priority 2019, published 2022)
